# Results as given in ChEMBL document CHEMBL6127107, “Oleanolic acid derivatives against drug-resistant bacteria and fungi by multi-targets to avoid drug resistance” (Eur J Med Chem, 2024).
# Assays:
# Staphylococcus aureus [1] = assay: Antimicrobial activity against methicillin-resistant Staphylococcus aureus 003; assay type: functional
# [2] = Selectivity index, ratio of HC50 for hemolytic activity against Mianyang red blood cells (unknown origin) to MIC for antimicrobial activity against methicillin resistant Staphylococcus aureus 003; assay type: toxicity, cell-based, RBC; conditions: read-out: Selectivity Index
# Candida albicans = assay: Antimicrobial activity against fluconazole-resistant Candida albicans; assay type: functional
# Enterococcus faecalis = assay: Antimicrobial activity against vancomycin resistant Enterococcus faecalis ATCC 51299; assay type: functional
# Escherichia coli = assay: Antimicrobial activity against Escherichia coli; assay type: functional
# Staphylococcus aureus [3] = assay: Antimicrobial activity against methicillin-resistant Staphylococcus aureus 011; assay type: functional
# Staphylococcus aureus [4] = assay: Antimicrobial activity against Staphylococcus aureus 29; assay type: functional
# [5] = Hemolytic activity against Mianyang red blood cells (unknown origin); assay type: toxicity, cell-based, RBC
# Pseudomonas aeruginosa = assay: Antimicrobial activity against Pseudomonas aeruginosa; assay type: functional
# Staphylococcus aureus [6] = assay: Antimicrobial activity against Staphylococcus aureus 31; assay type: functional
# Staphylococcus aureus [7] = assay: Antimicrobial activity against Staphylococcus aureus 10; assay type: functional
Structure (SMILES),MIC (Staphylococcus aureus [1]) [mg/L],selectivity ratio [2],MIC (Candida albicans) [mg/L],MIC (Enterococcus faecalis) [mg/L],MIC (Escherichia coli) [mg/L],MIC (Staphylococcus aureus [3]) [mg/L],MIC (Staphylococcus aureus [4]) [mg/L],HC50 [5] [µg/mL],MIC (Pseudomonas aeruginosa) [mg/L],MIC (Staphylococcus aureus [6]) [mg/L],MIC (Staphylococcus aureus [7]) [mg/L]
CC1(C)CC[C@]2(C(=O)O)CC[C@]3(C)C(=CC[C@@H]4[C@@]5(C)CC[C@H](OCC(O)CCCCCCCCN)C(C)(C)[C@@H]5CC[C@]43C)[C@@H]2C1 (stereo partly specified),8,3.15,32,16,> 64,8,8,25.2,> 64,32,8
CCCCC(=O)O[C@H]1CC[C@]2(C)[C@H]3CC=C4[C@@H]5CC(C)(C)CC[C@]5(C(=O)O)CC[C@@]4(C)[C@]3(C)CC[C@H]2C1(C)C,> 64,,> 64,> 64,> 64,> 64,> 64,,> 64,> 64,> 64
C[C@@H]1[C@H](O)[C@@H](C)/C=C/C=C/C=C/C=C/C=C/C=C/C=C/[C@H](O[C@@H]2O[C@H](C)[C@@H](O)[C@H](N)[C@@H]2O)C[C@@H]2O[C@](O)(C[C@@H](O)C[C@@H](O)[C@H](O)CC[C@@H](O)C[C@@H](O)CC(=O)O[C@H]1C)C[C@H](O)[C@H]2C(=O)O [AMPHOTERICIN B],,29.2,1,,,,,29.2,,,
CCNC(=O)[C@]12CCC(C)(C)C[C@H]1C1=CC[C@@H]3[C@@]4(C)CC[C@H](OC(C)=O)C(C)(C)[C@@H]4CC[C@@]3(C)[C@]1(C)CC2,> 64,,> 64,> 64,> 64,> 64,> 64,,> 64,> 64,> 64
CC1(C)CC[C@]2(C(=O)O)CC[C@]3(C)C(=CC[C@@H]4[C@@]5(C)CC[C@H](OC(=O)CCCC(=O)O)C(C)(C)[C@@H]5CC[C@]43C)[C@@H]2C1,32,> 32,32,32,> 64,32,32,> 1020,> 64,64,32
CC1(C)CC[C@]2(C(=O)O)CC[C@]3(C)C(=CC[C@@H]4[C@@]5(C)CC[C@H](OCC(O)CCCCCCCCNC(=N)N)C(C)(C)[C@@H]5CC[C@]43C)[C@@H]2C1 (stereo partly specified),8,72.1,16,8,> 64,4,8,577,> 64,16,8
OC(Cn1cncn1)(Cn1cncn1)c1ccc(F)cc1F [FLUCONAZOLE],,,> 128,,,,,> 256,,,
CC(=O)O[C@H]1CC[C@]2(C)[C@H]3CC=C4[C@@H]5CC(C)(C)CC[C@]5(C(=O)NCCc5ccccc5)CC[C@@]4(C)[C@]3(C)CC[C@H]2C1(C)C,> 64,,> 64,> 64,> 64,> 64,> 64,,> 64,> 64,> 64
CCCCCCC(=O)O[C@H]1CC[C@]2(C)[C@H]3CC=C4[C@@H]5CC(C)(C)CC[C@]5(C(=O)O)CC[C@@]4(C)[C@]3(C)CC[C@H]2C1(C)C,> 64,,> 64,> 64,> 64,> 64,> 64,,> 64,> 64,> 64
CCCCCCCCCCCCC(=O)O[C@H]1CC[C@]2(C)[C@H]3CC=C4[C@@H]5CC(C)(C)CC[C@]5(C(=O)O)CC[C@@]4(C)[C@]3(C)CC[C@H]2C1(C)C,> 64,,> 64,> 64,> 64,> 64,> 64,,> 64,> 64,> 64
CN(C)CC(O)CO[C@H]1CC[C@]2(C)[C@H]3CC=C4[C@@H]5CC(C)(C)CC[C@]5(C(=O)O)CC[C@@]4(C)[C@]3(C)CC[C@H]2C1(C)C (stereo partly specified),> 64,,> 64,> 64,> 64,> 64,> 64,,> 64,> 64,> 64
CC(=O)O[C@H]1CC[C@]2(C)[C@H]3CC=C4[C@@H]5CC(C)(C)CC[C@]5(C(=O)NCc5ccoc5)CC[C@@]4(C)[C@]3(C)CC[C@H]2C1(C)C,> 64,,> 64,> 64,> 64,> 64,> 64,,> 64,> 64,> 64
